PubChem BioAssay (NCI)
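Dose response: 5 concentrations. Exposure: 48 h. Format: 96-well plates. Endpoint: linear interpolation; highest concentration if not reached. GI50 marks 50% less growth. Definition used: TGI = concentration required for complete inhibition of growth.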

How the values were obtained:
Assay in all cases: inhibition of tumour cell growth, NCI panel, 48 h
U251 CNS = system: U251 CNS
PC-3 prostate = system: PC-3 prostate
M14 melanoma = system: M14 melanoma
OVCAR-8 ovarian = system: OVCAR-8 ovarian
SNB-19 CNS = system: SNB-19 CNS
SK-OV-3 ovarian = system: SK-OV-3 ovarian
MOLT-4 leukemia = system: MOLT-4 leukemia
SR leukemia = system: SR leukemia
RPMI-8226 leukemia = system: RPMI-8226 leukemia
RXF 393 renal = system: RXF 393 renal
CAKI-1 renal = system: CAKI-1 renal
OVCAR-4 ovarian = system: OVCAR-4 ovarian
NCI-H226 lung = system: NCI-H226 lung
HCC-2998 colon = system: HCC-2998 colon
MDA-MB-435 = system: MDA-MB-435
HT29 colon = system: HT29 colon
SF-268 CNS = system: SF-268 CNS
UACC-62 melanoma = system: UACC-62 melanoma
MDA-MB-231 breast = system: MDA-MB-231 breast
A549 NSCLC = system: A549 NSCLC
NCI-H460 lung = system: NCI-H460 lung
LOX IMVI melanoma = system: LOX IMVI melanoma
SN12C renal = system: SN12C renal
OVCAR-5 ovarian = system: OVCAR-5 ovarian
MCF7 breast = system: MCF7 breast
K-562 leukemia = system: K-562 leukemia
HS 578T breast = system: HS 578T breast
SNB-75 CNS = system: SNB-75 CNS
HCT-15 colon = system: HCT-15 colon
NCI-H23 lung = system: NCI-H23 lung
SW-620 colon = system: SW-620 colon
ACHN renal = system: ACHN renal
HL-60(TB) leukemia = system: HL-60(TB) leukemia
SF-295 CNS = system: SF-295 CNS
EKVX NSCLC = system: EKVX NSCLC
COLO 205 colon = system: COLO 205 colon
SF-539 CNS = system: SF-539 CNS
HCT-116 colon = system: HCT-116 colon
DU-145 prostate = system: DU-145 prostate
IGROV1 ovarian = system: IGROV1 ovarian
BT-549 breast = system: BT-549 breast
T-47D breast = system: T-47D breast
SK-MEL-2 melanoma = system: SK-MEL-2 melanoma
UO-31 renal = system: UO-31 renal
A498 renal = system: A498 renal
MALME-3M melanoma = system: MALME-3M melanoma
HOP-62 NSCLC = system: HOP-62 NSCLC
OVCAR-3 ovarian = system: OVCAR-3 ovarian
SK-MEL-28 melanoma = system: SK-MEL-28 melanoma
TK-10 renal = system: TK-10 renal
NCI/ADR-RES ovarian = system: NCI/ADR-RES ovarian
786-0 renal = system: 786-0 renal
SK-MEL-5 melanoma = system: SK-MEL-5 melanoma
NCI-H522 lung = system: NCI-H522 lung
KM12 colon = system: KM12 colon

SMILES: CC(C)=CCCC(C)c1ccc(C)c2c1OCN(CC1CCNCC1)C2 (stereo not given)
- GI50 (U251 CNS): 2.75 µM
- TGI (U251 CNS): 7.61 µM
- GI50 (PC-3 prostate): 16.5 µM
- TGI (PC-3 prostate): 42.1 µM
- GI50 (M14 melanoma): 10.2 µM
- TGI (M14 melanoma): 24.5 µM
- GI50 (OVCAR-8 ovarian): 18.4 µM
- TGI (OVCAR-8 ovarian): 34.5 µM
- GI50 (SNB-19 CNS): 14 µM
- TGI (SNB-19 CNS): 29.4 µM
- GI50 (SK-OV-3 ovarian): 16.7 µM
- TGI (SK-OV-3 ovarian): 31.1 µM
- GI50 (MOLT-4 leukemia): 14.6 µM
- TGI (MOLT-4 leukemia): 43.3 µM
- GI50 (SR leukemia): 2.79 µM
- TGI (SR leukemia): 9.83 µM
- GI50 (RPMI-8226 leukemia): 7.25 µM
- TGI (RPMI-8226 leukemia): 32.6 µM
- GI50 (RXF 393 renal): 9.2 µM
- TGI (RXF 393 renal): 21.7 µM
- GI50 (CAKI-1 renal): 17.7 µM
- TGI (CAKI-1 renal): 36.8 µM
- GI50 (OVCAR-4 ovarian): 16 µM
- TGI (OVCAR-4 ovarian): 30.7 µM
- GI50 (NCI-H226 lung): 17.7 µM
- TGI (NCI-H226 lung): 33.8 µM
- GI50 (HCC-2998 colon): 3.74 µM
- TGI (HCC-2998 colon): 12.3 µM
- GI50 (MDA-MB-435): 6.48 µM
- TGI (MDA-MB-435): 20.9 µM
- GI50 (HT29 colon): 3 µM
- TGI (HT29 colon): 8.38 µM
- GI50 (SF-268 CNS): 16.6 µM
- TGI (SF-268 CNS): 33.3 µM
- GI50 (UACC-62 melanoma): 15.5 µM
- TGI (UACC-62 melanoma): 29.9 µM
- GI50 (MDA-MB-231 breast): 12.5 µM
- TGI (MDA-MB-231 breast): 28.3 µM
- GI50 (A549 NSCLC): 13 µM
- TGI (A549 NSCLC): 27.8 µM
- GI50 (NCI-H460 lung): 5.36 µM
- TGI (NCI-H460 lung): 16.6 µM
- GI50 (LOX IMVI melanoma): 5.87 µM
- TGI (LOX IMVI melanoma): 20.2 µM
- GI50 (SN12C renal): 14.2 µM
- TGI (SN12C renal): 28.9 µM
- GI50 (OVCAR-5 ovarian): 14.3 µM
- TGI (OVCAR-5 ovarian): 28.8 µM
- GI50 (MCF7 breast): 6.15 µM
- TGI (MCF7 breast): 18.7 µM
- GI50 (K-562 leukemia): 2.68 µM
- TGI (K-562 leukemia): 8.44 µM
- GI50 (HS 578T breast): 13.3 µM
- TGI (HS 578T breast): 29.9 µM
- GI50 (SNB-75 CNS): 11.9 µM
- TGI (SNB-75 CNS): 24.3 µM
- GI50 (HCT-15 colon): 6.51 µM
- TGI (HCT-15 colon): 21.1 µM
- GI50 (NCI-H23 lung): 15.7 µM
- TGI (NCI-H23 lung): 33.6 µM
- GI50 (SW-620 colon): 9.87 µM
- TGI (SW-620 colon): 23.1 µM
- GI50 (ACHN renal): 15.3 µM
- TGI (ACHN renal): 30 µM
- GI50 (HL-60(TB) leukemia): 3.9 µM
- TGI (HL-60(TB) leukemia): 18.9 µM
- GI50 (SF-295 CNS): 15.9 µM
- TGI (SF-295 CNS): 34.9 µM
- GI50 (EKVX NSCLC): 20.7 µM
- TGI (EKVX NSCLC): 66.9 µM
- GI50 (COLO 205 colon): 1.86 µM
- TGI (COLO 205 colon): 3.41 µM
- GI50 (SF-539 CNS): 13.7 µM
- TGI (SF-539 CNS): 27.5 µM
- GI50 (HCT-116 colon): 7.17 µM
- TGI (HCT-116 colon): 21.7 µM
- GI50 (DU-145 prostate): 16.4 µM
- TGI (DU-145 prostate): 32.2 µM
- GI50 (IGROV1 ovarian): 16.6 µM
- TGI (IGROV1 ovarian): 32.2 µM
- GI50 (BT-549 breast): 16.9 µM
- TGI (BT-549 breast): 41.6 µM
- GI50 (T-47D breast): 15.2 µM
- TGI (T-47D breast): 33.2 µM
- GI50 (SK-MEL-2 melanoma): 18.2 µM
- TGI (SK-MEL-2 melanoma): 35.5 µM
- GI50 (UO-31 renal): 12.8 µM
- TGI (UO-31 renal): 27.3 µM
- GI50 (A498 renal): 12.3 µM
- TGI (A498 renal): 26 µM
- GI50 (MALME-3M melanoma): 17.7 µM
- TGI (MALME-3M melanoma): 35.3 µM
- GI50 (HOP-62 NSCLC): 14.8 µM
- TGI (HOP-62 NSCLC): 28.7 µM
- GI50 (OVCAR-3 ovarian): 15.6 µM
- TGI (OVCAR-3 ovarian): 31.1 µM
- GI50 (SK-MEL-28 melanoma): 15.7 µM
- TGI (SK-MEL-28 melanoma): 29.3 µM
- GI50 (TK-10 renal): 14.4 µM
- TGI (TK-10 renal): 29.3 µM
- GI50 (NCI/ADR-RES ovarian): 16.8 µM
- TGI (NCI/ADR-RES ovarian): 34.8 µM
- GI50 (786-0 renal): 12.2 µM
- TGI (786-0 renal): 26.3 µM
- GI50 (SK-MEL-5 melanoma): 4.97 µM
- TGI (SK-MEL-5 melanoma): 18.3 µM
- GI50 (NCI-H522 lung): 13.5 µM
- TGI (NCI-H522 lung): 28.6 µM
- GI50 (KM12 colon): 12.3 µM
- TGI (KM12 colon): 26 µM
